Paper PMC6736568, “Discovery of Novel Anti-cryptosporidial Activities From Natural Products by in vitro High-Throughput Phenotypic Screening” (Frontiers in Microbiology, 2019)
Like-named read-outs stand apart in the source and are kept apart here.

Experiments:
[1] = test system: HCT-8 host cells (Hs18S)
[2] = test system: Cryptosporidium parvum; assay: qRT-PCR assay of the growth of C. parvum in vitro in HCT-8 host cells (primary and secondary screening, EC50); format: cell-based
[3] = primary screening at 10 uM, from Hs18S ΔCT
[4] = primary screening at 10 uM, treated vs control

| Compound | Cytotoxicity (%) [1, 3] | Hs18S ΔCT [1, 4] | Inhibition (%) ([2]; primary screening at 10 uM) | further results |
| --- | --- | --- | --- | --- |
| CC1(C)C2CC(=O)[C@]3(C)C(CC[C@@]4(C)[C@H](c5ccoc5)OC(=O)C5OC543)[C@@]2(C)[C@@H](O)C[C@H]1O (some centres unmarked) | 4.7% | 0.07 | 69.64% | % Inhibition (3.3 uM) ([2]; secondary screening at 3.3 uM): 3% |
| C=C1CCC(C2CC(=O)OC2=O)C(=O)CCC2C1CC2(C)C (centres unmarked) | -6.8% | -0.09 | 23.70% |  |
| C/C1=C\CC/C(C)=C/CC(C)(C)/C=C/C1 | 0.1% | 0.00 | -30.91% |  |
| CC[C@H](C=C[C@@H](C)[C@H]1CC[C@H]2[C@@H]3CCC4=CC(=O)CC[C@]4(C)[C@H]3CC[C@]12C)C(C)C |  |  |  | Hs18S ΔCT [1]: 0.46; Cytotoxicity (%) ([1]; 10 µM): 27.4; % Inhibition (3.3 uM) [2]: -6; Inhibition (%) ([2]; 10 µM): 64.69 |
| 3-ACETYLGEDUNOL | 56.3% | 1.19 | -40.49% |  |
| CC1=CC(=O)CC(C)(C)C1(O)/C=C/C(C)=C\C(=O)O (racemic) [ABSCISIC ACID (cis,trans; +/-)] | 36.3% | 0.65 | -7.09% |  |
| C=CC[S+]([O-])C[C@H](N)C(=O)O (mixture of isomers) [L(+/-)-ALLIIN] | -12.5% | -0.17 | 21.98% |  |
| CC1(C)C(=O)[C@@H]2O[C@@H]2[C@@]2(C)C1C[C@@H](O)[C@]1(C)C2CC[C@@]2(C)[C@H](c3ccoc3)OC(=O)C3OC321 (stereo partly drawn) [1,2alpha-EPOXYDEACETOXYDIHYDROGEDUNIN] | -12.9% | -0.18 | 56.48% |  |
| CC1(C)C2CC(=O)[C@]3(C)C(CC[C@@]4(C)[C@H](c5ccoc5)OC(=O)[C@H]5O[C@]543)[C@@]2(C)C(=O)C[C@H]1O (some centres unmarked) [1,7-DIDEACETOXY-1,7-DIOXO-3-DEACETYLKHIVORIN] | -6.9% | -0.10 | 26.84% |  |
| COc1cc(O)c(C(=O)/C=C/c2ccc(O)c(OC)c2)c(OC)c1 [2',4-DIHYDROXY-3,4',6'-TRIMETHOXYCHALCONE] |  | 0.09 |  |  |
| CC(=O)O[C@H]1C[C@@H](OC(C)=O)C(C)(C)C2C[C@@H](O)[C@]3(C)C(CC[C@@]4(C)[C@H](c5ccoc5)OC(=O)[C@H]5O[C@]543)[C@]21C (some centres unmarked) [7-DEACETYLKHIVORIN] | -46.2% | -0.55 |  |  |
| CC1(C)C(=O)C=C[C@]2(C)[C@H]3CC[C@@]4(C)[C@H](c5ccoc5)OC(=O)[C@H]5O[C@]54[C@]3(C)C=C[C@@H]12 [7-DESACETOXY-6,7-DEHYDROGEDUNIN] |  | 5.31 |  |  |
| C=CCc1cc(OC)c2c(c1OC)OCO2 [APIOLE] |  | 0.06 |  |  |
| CN1CCc2cc3c(cc2[C@H]1[C@@H]1OC(=O)c2c1ccc1c2OCO1)OCO3 [BICUCULLINE (+)] | -169.4% | -1.43 |  |  |
| CC12CCC(CC1=O)C2(C)C [CAMPHOR (1R)] |  | -0.22 |  |  |
| COC(=O)C[C@H]1C(C)(C)C(=O)[C@@H]2CC3=C(CC[C@]4(C)C3=CC(=O)O[C@H]4c3ccoc3)[C@@]1(C)C2=O [CARAPIN-8(9)-ENE] |  | -0.62 |  |  |
| C=C1CC/C=C(\C)CC[C@@H]2[C@@H]1CC2(C)C [CARYOPHYLLENE [t(-)]] | 20.0% | 0.32 |  |  |
| C[C@H](CCC(=O)O)[C@H]1CC[C@H]2[C@@H]3[C@H](O)C[C@@H]4C[C@H](O)CC[C@]4(C)[C@H]3C[C@H](O)[C@]12C [CHOLIC ACID] |  |  |  | inhibition at 10 µM ([2]; Cryptosporidium parvum, HCT-8, primary screening at 10 uM, read-out: Inhibition (%)): 26.7% |
| CCC(C)C(=O)O[C@@H]1C[C@@]2(C)[C@H](c3ccoc3)OC(=O)CC23OC2(C)OC34[C@H](OC(=O)C(C)C)[C@@]3(O)[C@@H](OC(=O)C5(C)OC5C)[C@@]5(C)C[C@]3(O)[C@@](C)([C@H]5CC(=O)OC)C14O2 (some centres unmarked) [ENTANDROPHRAGMIN] |  | -0.12 |  |  |

| Compound | Cytotoxicity (%) [1, 3] | Hs18S ΔCT [1, 4] | Inhibition (%) ([2]; primary screening at 10 uM) | further results |
| --- | --- | --- | --- | --- |
| CN[C@@H](C)[C@H](O)c1ccccc1.Cl [EPHEDRINE (1R,2S) HYDROCHLORIDE] |  |  | 11.97% |  |
| COc1cc(/C=C/C(=O)O)ccc1O [FERULIC ACID] |  | -0.04 |  |  |
| CC[C@H](CC[C@@H](C)[C@H]1CC[C@H]2[C@@H]3CC[C@H]4C[C@@H](O)CC[C@]4(C)[C@H]3CC[C@]12C)C(C)C [FUCOSTANOL] | -61.6% | -0.69 |  |  |
| Cc1cc(=O)oc2cc(O)ccc12 [HYMECHROME] |  | -0.28 |  |  |
| CC(=O)Oc1cc(-c2coc3cc(OC(C)=O)c(OC(C)=O)c(OC(C)=O)c3c2=O)cc(OC(C)=O)c1OC(C)=O [IRIGINOL HEXAACETATE] |  | -0.17 |  |  |
| CC1(C)C=Cc2c(c3c(c4c(=O)c(-c5ccc(O)c(O)c5)coc24)OC(C)(C)CC3)O1 [ISOPOMIFERIN] | -5.3% | -0.07 |  |  |
| CNCc1ccccc1.Cl [N-METHYLBENZYLAMINE HYDROCHLORIDE] |  | -0.08 |  |  |
| Cl.NCCC[C@H](N)C(=O)O [ORNITHINE HYDROCHLORIDE] |  |  | -42.36% |  |
| CCCCCCCCCCCC[C@@H](C(=O)O)[C@H](C)C(=O)O [ROCCELLIC ACID] | -4.1% | -0.06 |  |  |
| COc1cc(/C=C/C(=O)O)cc(OC)c1O [SINAPIC ACID] |  | 0.25 |  |  |
| COc1ccc(-c2cc(=O)c3c(OC)c(OC)c(OC)c(OC)c3o2)cc1 [TANGERITIN] | 8.0% | 0.12 |  |  |
| Cc1c(S(=O)(=O)[O-])oc2c1C(=O)C(=O)c1c-2ccc2c1CCCC2(C)C.[Na+] [TANSHINONE IIA SULFONATE SODIUM] |  | 0.01 |  |  |
| COC1=C(OC)C(=O)C(C/C=C(\C)CC/C=C(\C)CC/C=C(\C)CC/C=C(\C)CC/C=C(\C)CC/C=C(\C)CC/C=C(\C)CC/C=C(\C)CC/C=C(\C)CCC=C(C)C)=C(C)C1=O [UBIDECARENEONE] | 21.3% | 0.35 |  |  |
| COc1c(O)cc2oc3cc(O)c(CC=C(C)C)c(O)c3c(=O)c2c1CC=C(C)C [alpha-MANGOSTIN] | 95.1% | 4.36 |  |  |
| COc1cc2c(cc1OC)C1C(=O)c3c(O)cc4c(c3OC1CO2)C=CC(C)(C)O4 (stereo not drawn) [alpha-TOXICAROL (dl)] |  | 0.01 |  |  |
| HECOGENIN |  | -0.23 |  |  |
| ISOTECTORIGENIN, 7-METHYL ETHER |  |  | -18.66% |  |
| MEPARTRICIN |  | -0.51 |  |  |
| MONENSIN SODIUM (monensin A is shown) |  |  | 94.05% | % Inhibition (3.3 uM) ([2]; secondary screening at 3.3 uM): 99% |
